According to ChEMBL document CHEMBL2146447, “Synthesis and antimicrobial activity of amido linked pyrrolyl and pyrazolyl-oxazoles, thiazoles and imidazoles” (2011):

Experiments:
Type in all cases: functional
Staphylococcus aureus [1] = assay: Antibacterial activity against Staphylococcus aureus assessed at 50 ug after 24 hrs by agar well diffusion method; details: read-out: DIZ
Staphylococcus aureus [2] = assay: Antibacterial activity against Staphylococcus aureus at 100 ug after 24 hrs by agar well diffusion method; details: read-out: DIZ
Bacillus subtilis [3] = assay: Antibacterial activity against Bacillus subtilis at 50 ug after 24 hrs by agar well diffusion method; details: read-out: DIZ
Bacillus subtilis [4] = assay: Antibacterial activity against Bacillus subtilis at 100 ug after 24 hrs by agar well diffusion method; details: read-out: DIZ
Pseudomonas aeruginosa [5] = assay: Antibacterial activity against Pseudomonas aeruginosa at 50 ug after 24 hrs by agar well diffusion method; details: read-out: DIZ
Pseudomonas aeruginosa [6] = assay: Antibacterial activity against Pseudomonas aeruginosa at 100 ug after 24 hrs by agar well diffusion method; details: read-out: DIZ
Klebsiella pneumoniae [7] = assay: Antibacterial activity against Klebsiella pneumoniae at 50 ug after 24 hrs by agar well diffusion method; details: read-out: DIZ
Klebsiella pneumoniae [8] = assay: Antibacterial activity against Klebsiella pneumoniae at 100 ug after 24 hrs by agar well diffusion method; details: read-out: DIZ
Aspergillus niger [9] = assay: Antifungal activity against Aspergillus niger at 50 ug after 48 hrs by agar well diffusion method; details: read-out: DIZ
Aspergillus niger [10] = assay: Antifungal activity against Aspergillus niger at 100 ug after 48 hrs by agar well diffusion method; details: read-out: DIZ
Penicillium chrysogenum [11] = assay: Antifungal activity against Penicillium chrysogenum at 50 ug after 48 hrs by agar well diffusion method; details: read-out: DIZ
Penicillium chrysogenum [12] = assay: Antifungal activity against Penicillium chrysogenum at 100 ug after 48 hrs by agar well diffusion method; details: read-out: DIZ
Staphylococcus aureus [13] = assay: Antibacterial activity against Staphylococcus aureus at 35 degC after 24 hrs by broth dilution method
Staphylococcus aureus [14] = assay: Antibacterial activity against Staphylococcus aureus at 35 degC after 24 hrs by NCCLS M7-A3 method
Bacillus subtilis [15] = assay: Bactericidal activity against Bacillus subtilis after 24 hrs by broth dilution method
Bacillus subtilis [16] = assay: Bactericidal activity against Bacillus subtilis after 24 hrs by NCCLS M7-A3 method
Pseudomonas aeruginosa [17] = assay: Bactericidal activity against Pseudomonas aeruginosa after 24 hrs by broth dilution method
Pseudomonas aeruginosa [18] = assay: Bactericidal activity against Pseudomonas aeruginosa after 24 hrs by NCCLS M7-A3 method
Klebsiella pneumoniae [19] = assay: Bactericidal activity against Klebsiella pneumoniae after 24 hrs by broth dilution method
Klebsiella pneumoniae [20] = assay: Bactericidal activity against Klebsiella pneumoniae after 24 hrs by NCCLS M7-A3 method
Aspergillus niger [21] = assay: Fungicidal activity against Aspergillus niger after 48 hrs by broth dilution method
Aspergillus niger [22] = assay: Fungicidal activity against Aspergillus niger after 48 hrs by NCCLS M27-P broth dilution method
Penicillium chrysogenum [23] = assay: Fungicidal activity against Penicillium chrysogenum after 48 hrs by broth dilution method
Penicillium chrysogenum [24] = assay: Fungicidal activity against Penicillium chrysogenum after 48 hrs by NCCLS M27-P broth dilution method

Row | MIC (Staphylococcus aureus [13]) | Compound | zone of inhibition at 50 µg/disc (Staphylococcus aureus [1]) | zone of inhibition at 100 µg/disc (Staphylococcus aureus [2]) | zone of inhibition at 50 µg/disc (Bacillus subtilis [3]) | zone of inhibition at 100 µg/disc (Bacillus subtilis [4]) | zone of inhibition at 50 µg/disc (Pseudomonas aeruginosa [5]) | zone of inhibition at 100 µg/disc (Pseudomonas aeruginosa [6]) | zone of inhibition at 50 µg/disc (Klebsiella pneumoniae [7]) | zone of inhibition at 100 µg/disc (Klebsiella pneumoniae [8]) | zone of inhibition at 50 µg/disc (Aspergillus niger [9]) | zone of inhibition at 100 µg/disc (Aspergillus niger [10]) | zone of inhibition at 50 µg/disc (Penicillium chrysogenum [11]) | zone of inhibition at 100 µg/disc (Penicillium chrysogenum [12]) | MBC (Staphylococcus aureus [14]) | MIC (Bacillus subtilis [15]) | MBC (Bacillus subtilis [16]) | MIC (Pseudomonas aeruginosa [17]) | MBC (Pseudomonas aeruginosa [18]) | MIC (Klebsiella pneumoniae [19]) | MBC (Klebsiella pneumoniae [20]) | also measured
1 | 50 µg | O=C(Nc1nc(-c2ccc(Cl)cc2)c[nH]1)c1n[nH]cc1-c1ccccc1 | 31 mm | 34 mm | 33 mm | 35 mm | 30 mm | 32 mm | 37 mm | 39 mm | 30 mm | 34 mm | 33 mm | 37 mm | 200 µg | 12.5 µg | 50 µg | 25 µg | 100 µg | 50 µg | 200 µg | MIC (Aspergillus niger [21]): 12.5 µg; MFC (Aspergillus niger [22]): 50 µg; MIC (Penicillium chrysogenum [23]): 25 µg; MFC (Penicillium chrysogenum [24]): 100 µg
2 | 12.5 µg | O=C(/C=C/c1ccccc1)Nc1nc(-c2ccc(Cl)cc2)c[nH]1 | 32 mm | 35 mm | 36 mm | 38 mm | 31 mm | 33 mm | 39 mm | 40 mm | 32 mm | 34 mm | 35 mm | 38 mm | 50 µg | 12.5 µg | 25 µg | 12.5 µg | 50 µg | 25 µg | 100 µg | MIC (Aspergillus niger [21]): 12.5 µg; MFC (Aspergillus niger [22]): 100 µg; MIC (Penicillium chrysogenum [23]): 25 µg; MFC (Penicillium chrysogenum [24]): 50 µg
3 | 50 µg | O=C(Nc1nc(-c2ccc(Cl)cc2)c[nH]1)c1c[nH]cc1-c1ccccc1 | 30 mm | 33 mm | 29 mm | 33 mm | 25 mm | 28 mm | 34 mm | 36 mm | 32 mm | 34 mm | 33 mm | 36 mm | 200 µg | 25 µg | 100 µg | 50 µg | >200 µg | 100 µg | >200 µg | MIC (Aspergillus niger [21]): 25 µg; MFC (Aspergillus niger [22]): 100 µg; MIC (Penicillium chrysogenum [23]): 50 µg; MFC (Penicillium chrysogenum [24]): >200 µg
